Target: T1, human mAChR M1 (Homo sapiens, UniProt P11229)
T1 construct: host or cells: CHO-K1 (ATCC), stably transfected
T1 sequence (P11229 1-460): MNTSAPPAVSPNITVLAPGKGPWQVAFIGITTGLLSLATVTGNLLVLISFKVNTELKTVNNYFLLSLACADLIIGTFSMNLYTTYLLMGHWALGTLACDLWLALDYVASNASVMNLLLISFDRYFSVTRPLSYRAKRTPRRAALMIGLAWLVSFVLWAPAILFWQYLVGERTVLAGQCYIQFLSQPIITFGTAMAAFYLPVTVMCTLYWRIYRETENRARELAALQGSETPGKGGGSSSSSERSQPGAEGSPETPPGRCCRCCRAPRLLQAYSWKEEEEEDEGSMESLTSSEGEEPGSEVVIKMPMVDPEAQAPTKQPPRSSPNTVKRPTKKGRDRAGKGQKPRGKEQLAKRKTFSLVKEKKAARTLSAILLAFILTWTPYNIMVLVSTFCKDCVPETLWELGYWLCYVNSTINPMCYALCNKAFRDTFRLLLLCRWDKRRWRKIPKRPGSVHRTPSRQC
Assay: mAChR M1 cell-based functional assay (calcium flux, antagonism of EC80 acetylcholine response, hM1 CHO-K1 cells)
Conditions: for Human M1 Emin: % ACh maximum at 30 μM; for IC50: decrease of the response elicited by an EC80 concentration of acetylcholine, CHO-K1 cells
Method: hM1 cDNA was purchased from Missouri S&T cDNA Resource and used to stably transfect CHO-K1 cells purchased from the American Type Culture Collection using Lipofectamine2000. hM1 cells were grown in Ham's F-12 medium containing 10% heat-inactivated fetal bovine serum (FBS), 20 mM HEPES, and 50 μg/mL G418 sulfate.
For high throughput measurement of agonist-evoked increases in intracellular calcium, CHO-K1 cells stably expressing muscarinic receptors were plated in growth medium lacking G418 and hygromycin at 15,000 cells/20 μL/well in Greiner 384-well black-walled, tissue culture (TC)-treated, clear-bottom plates (VWR). Cells were incubated overnight at 37° C. and 5% CO2. The next day, cells were washed using an ELX 405 (BioTek) with four washes (80 μL) of assay buffer then aspirated to 20 μL. Next, 20 μL of 16 μM Fluo-4/acetoxymethyl ester (Invitrogen, Carlsbad, CA) prepared as a 2.3 mM stock in DMSO and mixed in a 1:1 ratio with 10% (w/v) Pluronic F-127 and diluted in assay buffer was added to the wells and the cell plates were incubated for 50 min at 37° C. and 5% CO2. Dye was removed by washing with the ELX 405 (four 80 μL washes of assay buffer) then aspirated to 20 μL. Compound master plates were formatted in an 11-point CRC format (1:3 dilutions) in 100% DMSO with a starting concentration of 10 mM using the BRAVO liquid handler (Agilent). Test compound CRCs were then transferred to daughter plates (240 nL) using the Echo acoustic plate reformatter (Labcyte, Sunnyvale, CA) and then diluted into assay buffer (40 μL) to a 2× stock using a Thermo Fisher Combi (Thermo Fisher Scientific, Waltham, MA).
Calcium flux was measured using the Functional Drug Screening System (FDSS) 6000 (Hamamatsu Corporation, Tokyo, Japan) as an increase in the fluorescent static ratio. Compounds were applied to cells (20 μL, 2×) using the automated system of the FDSS 6000 at 4 s into the 300 s protocol and the data were collected at 1 Hz. At 144 s into the 300 s protocol, 10 μL of an EC20 concentration of the muscarinic receptor agonist acetylcholine was added (5×), followed by the addition of 12 μL an EC80 concentration of acetylcholine at the 230 s time point (5×). Agonist activity was analyzed as a concentration-dependent increase in calcium mobilization upon compound addition. Emax values for agonist activity are expressed relative to the maximum for acetylcholine. Positive allosteric modulator activity was analyzed as a concentration-dependent increase in the EC20 acetylcholine response. Antagonist activity was analyzed as a concentration-dependent decrease in the EC80 acetylcholine response; for the purposes of the tables herein, an IC50 (inhibitory concentration 50) was calculated as a concentration-dependent decrease of the response elicited by an EC80 concentration of acetylcholine. […]
The above-described assay was also operated in a second mode where an appropriate fixed concentration of the present compounds were added to the cells after establishment of a fluorescence baseline for about 3 seconds, and the response in cells was measured. 140 s later the appropriate concentration of agonist was added and readings taken for an additional 106 s. Data were reduced as described above and the EC50 values for the agonist in the presence of test compound were determined by nonlinear curve fitting. […]

Row | Human M1 Emin [%] | IC50 [nM] | Structure (SMILES) | human mAChR M1 antagonist activity, comparison in words (compound 61 versus compound 62, from Table 3)
1 | 20 | > 10000 | [2H]C([2H])([C@H]1CCOC(C)(C)C1)N1C[C@H]2C[C@H](Nc3ccc(-c4cccnc4C(F)(F)F)nn3)C[C@H]2C1 (single isomer, unassigned) [Compound 61] | less human mAChR M1 antagonist activity than compound 62
2 | 6 | 610 | [2H]C([2H])([C@@H]1CCOC(C)(C)C1)N1C[C@H]2C[C@H](Nc3ccc(-c4cccnc4C(F)(F)F)nn3)C[C@H]2C1 [Compound 62, (3aR,5s,6aS)-2-(((R)-2,2-dimethyltetrahydro-2H-pyran-4-yl)methyl-d2)-N-(6-(2-(trifluoromethyl)pyridin-3-yl)pyridazin-3-yl)octahydrocyclopenta[c]pyrrol-5-amine] | 

Reference: patent US20240109873A1, “ANTAGONISTS OF THE MUSCARINIC ACETYLCHOLINE RECEPTOR M4” (Vanderbilt University, priority 2020, published 2024)
